Measured values taken from PMC4974736, “Corynebacterium glutamicum possesses β-N-acetylglucosaminidase” (BMC Microbiology, 2016).

How the values were obtained:
Assay type in all cases: biochemical
NagZ = biological target: T1, NagZ (Bacillus subtilis, UniProt P40406); test: p-nitrophenol release at […] nm; details: 100 mM phosphate pH 7.0; cell extract of overexpressing C. glutamicum; turnover only
T1 construct: codon-optimized synthetic gene in pEKEx3, overexpressed in C. glutamicum; cell extract, not purified
T1 sequence (P40406 17-642): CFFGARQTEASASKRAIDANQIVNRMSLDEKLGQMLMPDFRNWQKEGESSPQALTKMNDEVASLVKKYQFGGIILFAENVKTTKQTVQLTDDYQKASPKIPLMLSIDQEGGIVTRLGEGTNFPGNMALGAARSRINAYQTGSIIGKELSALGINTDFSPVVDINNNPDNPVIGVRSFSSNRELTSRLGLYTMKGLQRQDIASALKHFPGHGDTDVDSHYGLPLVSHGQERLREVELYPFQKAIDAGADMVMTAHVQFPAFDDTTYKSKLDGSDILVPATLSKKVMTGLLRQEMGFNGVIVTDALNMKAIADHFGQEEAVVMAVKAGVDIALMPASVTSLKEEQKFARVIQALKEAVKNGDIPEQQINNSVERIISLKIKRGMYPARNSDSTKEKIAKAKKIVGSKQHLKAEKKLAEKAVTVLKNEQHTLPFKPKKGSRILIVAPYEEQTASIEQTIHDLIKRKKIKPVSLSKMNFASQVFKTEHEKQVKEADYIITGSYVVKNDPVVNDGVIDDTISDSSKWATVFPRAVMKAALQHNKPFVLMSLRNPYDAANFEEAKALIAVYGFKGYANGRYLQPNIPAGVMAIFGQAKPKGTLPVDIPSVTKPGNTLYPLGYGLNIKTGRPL

[1] = biological target: T2, NagA2 fused to the C. glutamicum PhoD signal peptide (PhoD-nagA2) (Corynebacterium glutamicum, UniProt Q8NLT5); test: p-nitrophenol release at […] nm, Eadie-Hofstee plot; details: 100 mM phosphate pH 7.0; culture supernatant of overexpressing C. glutamicum
T2 construct: gene Cgl2852; native signal peptide replaced by TAT signal peptide of PhoD (cg2485), expected to be cleaved on export; pEKEx3 in C. glutamicum; culture supernatant, not purified
T2 sequence (Q8NLT5 entry or part of it): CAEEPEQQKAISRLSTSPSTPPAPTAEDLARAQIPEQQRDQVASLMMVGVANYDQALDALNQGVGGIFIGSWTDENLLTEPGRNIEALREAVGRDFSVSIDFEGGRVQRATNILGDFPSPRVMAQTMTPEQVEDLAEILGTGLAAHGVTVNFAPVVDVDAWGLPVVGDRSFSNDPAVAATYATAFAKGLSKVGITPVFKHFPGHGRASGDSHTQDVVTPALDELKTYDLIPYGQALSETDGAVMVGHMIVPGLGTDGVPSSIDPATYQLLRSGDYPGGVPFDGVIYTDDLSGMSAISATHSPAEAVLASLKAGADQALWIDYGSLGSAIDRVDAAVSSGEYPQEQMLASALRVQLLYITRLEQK

ChiB = biological target: T3, ChiB (Serratia marcescens, UniProt P11797); test: p-nitrophenol release at […] nm; details: 100 mM phosphate pH 7.0; cell extract and supernatant of overexpressing C. glutamicum; turnover only
T3 construct: native form or fused to TAT signal peptide of Cg0955 (SP0955); pEKEx3 in C. glutamicum; cell extract and supernatant, not purified
T3 sequence (P11797 1-499 limits assumed): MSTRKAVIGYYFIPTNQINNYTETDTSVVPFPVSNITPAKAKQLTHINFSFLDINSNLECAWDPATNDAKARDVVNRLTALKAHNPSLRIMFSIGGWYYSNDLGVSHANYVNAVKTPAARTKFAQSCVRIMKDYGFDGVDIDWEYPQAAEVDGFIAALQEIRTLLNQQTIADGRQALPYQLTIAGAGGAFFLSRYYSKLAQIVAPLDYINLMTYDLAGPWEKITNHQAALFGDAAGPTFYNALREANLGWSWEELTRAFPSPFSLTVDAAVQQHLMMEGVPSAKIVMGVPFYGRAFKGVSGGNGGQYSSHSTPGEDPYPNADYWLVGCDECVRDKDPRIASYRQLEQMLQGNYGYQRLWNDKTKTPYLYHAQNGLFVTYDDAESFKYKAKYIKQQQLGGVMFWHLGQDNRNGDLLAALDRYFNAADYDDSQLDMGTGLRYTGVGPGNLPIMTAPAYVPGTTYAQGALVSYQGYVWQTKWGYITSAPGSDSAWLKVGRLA

[2] = biological target: T4, NagA2 lacking its own signal peptide (SP-less-nagA2) (Corynebacterium glutamicum, UniProt Q8NLT5); test: p-nitrophenol release at […] nm, Eadie-Hofstee plot; details: 100 mM phosphate pH 7.0; cell extract fraction of overexpressing C. glutamicum
T4 construct: gene Cgl2852; predicted native signal peptide removed; overexpressed from pEKEx3 in C. glutamicum; cell extract, not purified
T4 sequence (Q8NLT5 entry or part of it): as the sequence (Q8NLT5 entry or part of it) above

**Q.** How did the “p-nitrophenol release at 405 nm” value (NagZ) turn out when `CC(=O)N[C@H]1[C@H](Oc2ccc([N+](=O)[O-])cc2)O[C@H](CO)[C@@H](O)[C@@H]1O` [4-Nitrophenyl N-acetyl-β-D-glucosaminide] was run?
**A.** NagZ produced in C. glutamicum led to an intracellular specific activity of N-acetylglucosaminidase

**Q.** `CC(=O)N[C@H]1[C@H](Oc2ccc([N+](=O)[O-])cc2)O[C@H](CO)[C@@H](O[C@@H]2O[C@H](CO)[C@@H](O)[C@H](O)[C@H]2NC(C)=O)[C@@H]1O` [4-nitrophenyl N,N’-diacetyl-β-D-chitobioside] was tested. Which Km [1] did it give?
**A.** 270 ± 66 µM

**Q.** What about the “p-nitrophenol release at 405 nm” value (ChiB) of the same molecule?
**A.** chitinase activity was quantified by measuring the hydrolysis of p-nitrophenol from 4-Nitrophenyl N,N’-diacetyl-β-D-chitobioside

**Q.** And the Km [2]?
**A.** 266 ± 37 µM
